# Laboratory results: patent EP0428132A1, “Pradimicin derivatives” (Bristol-Myers Squibb Company, priority 1989, dated 1991)
# Tests used:
# [1] = test system: FA21436; assay: In vitro antifungal activity, serial agar dilution method (Table 1); assay type: cell-based, Asoergukkys flavus; settings: Sabouraud dextrose agar (pH 7.0); 28°C for 40 hours; read-out: MIC, Asoergukkys flavus FA21436
# Experimental: (§1) The inoculum size was adjusted to 10⁶ cells/ml, and a volume of approximately 0.003 ml of fungal suspension was applied to the surface of the antibiotic containing agar plates with a multiinoculator. After incubation, the lowest concentration of antibiotic causing virtually complete inhibition of fungal growth was determined as the minimum inhibitory concentration (MIC). Table 1. [table]
# [2] = test system: Aspergillus fumigatus IAM2034; assay: as above; assay type: cell-based; settings: Aspergillus fumigatus, IAM2034; Sabouraud dextrose agar (pH 7.0); 28°C for 40 hours
# Experimental: as §1
# [3] = test system: Aspergillus fumigatus IAM2530; assay: as above; assay type: cell-based; settings: Aspergillus fumigatus, IAM2530; Sabouraud dextrose agar (pH 7.0); 28°C for 40 hours
# Experimental: as §1
# [4] = test system: Candida albicans A9540; assay: as above; assay type: cell-based; settings: Candida albicans, A9540; Sabouraud dextrose agar (pH 7.0); 28°C for 40 hours
# Experimental: as §1
# [5] = test system: Cryptococcus neoformans D49; assay: as above; assay type: cell-based; settings: Cryptococcus neoformans, D49; Sabouraud dextrose agar (pH 7.0); 28°C for 40 hours; read-out: MIC, Cryptococcus neoformans D49
# Experimental: as §1
# [6] = test system: Cryptococcus neoformans IAM4514; assay: as above; assay type: cell-based; settings: Cryptococcus neoformans, IAM4514; Sabouraud dextrose agar (pH 7.0); 28°C for 40 hours
# Experimental: as §1
# [7] = test system: Fusarium moniliforme A2284; assay: as above; assay type: cell-based; settings: Fusarium verticillioides, A2284; Sabouraud dextrose agar (pH 7.0); 28°C for 40 hours
# Experimental: as §1
# [8] = test system: Petriellidium boydii IFO8078; assay: as above; assay type: cell-based; settings: Scedosporium boydii, IFO8078; Sabouraud dextrose agar (pH 7.0); 28°C for 40 hours
# Experimental: as §1
# [9] = test system: Sprotricosis schenckii IFO8158; assay: as above; assay type: cell-based; settings: Sabouraud dextrose agar (pH 7.0); 28°C for 40 hours; read-out: MIC, Sprotricosis schenckii IFO8158
# Experimental: as §1
# [10] = test system: Trichophyton mentagrophytes #4329; assay: as above; assay type: cell-based; settings: Trichophyton mentagrophytes; Sabouraud dextrose agar (pH 7.0); 28°C for 40 hours
# Experimental: as §1
# [11] = test system: Candida albicans A25578; assay: In vitro antifungal activity, serial agar dilution method (Table 1a); assay type: cell-based; settings: A25578, YM agar (pH 7.0, Difco), 30°C for 2 days (yeast) or 4 days (filamentous fungi), read-out: MICs, Candida albicans A25578
# Experimental: (§2) The inoculum size was adjusted to 10⁶ cells/ml, and a volume of approximately 0.003 ml of fungal suspension was applied to the surface of the antibiotic containing agar plates with a multiinoculator. After incubation, the lowest concentration of antibiotic causing virtually complete inhibition of fungal growth was determined as the minimum inhibitory concentration (MIC).
# [12] = test system: Candida albicans A9540; assay: as above; assay type: cell-based; settings: A9540, YM agar (pH 7.0, Difco), 30°C for 2 days (yeast) or 4 days (filamentous fungi), read-out: MICs, Candida albicans A9540
# Experimental: as §2
# [13] = test system: Candida paratropicalis A25825; assay: as above; assay type: cell-based; settings: YM agar (pH 7.0, Difco); 30°C for 2 days (yeast) or 4 days (filamentous fungi); read-out: MICs, Candida paratropicalis A25825
# Experimental: as §2
# [14] = test system: Candida pseudotropicalis A25802; assay: as above; assay type: cell-based; settings: Kluyveromyces marxianus, YM agar (pH 7.0, Difco), 30°C for 2 days (yeast) or 4 days (filamentous fungi), read-out: MICs, Candida pseudotropicalis A25802
# Experimental: as §2
# [15] = test system: Candida tropicalis A25809; assay: as above; assay type: cell-based; settings: YM agar (pH 7.0, Difco), 30°C for 2 days (yeast) or 4 days (filamentous fungi), read-out: MICs, Candida tropicalis A25809
# Experimental: as §2
# [16] = test system: Candida tropicalis A25812; assay: as above; assay type: cell-based; settings: A25812, YM agar (pH 7.0, Difco), 30°C for 2 days (yeast) or 4 days (filamentous fungi), read-out: MICs, Candida tropicalis A25812
# Experimental: as §2
# [17] = test system: Cryptococcus neoformans A15053; assay: as above; assay type: cell-based; settings: A15053, YM agar (pH 7.0, Difco), 30°C for 2 days (yeast) or 4 days (filamentous fungi), read-out: MICs, Cryptococcus neoformans A15053
# Experimental: as §2
# [18] = test system: Microsporum canis WW10218; assay: as above; assay type: cell-based; settings: WW10218, YM agar (pH 7.0, Difco), 30°C for 2 days (yeast) or 4 days (filamentous fungi), read-out: MICs, Microsporum canis WW10218
# Experimental: as §2
# [19] = test system: Microsporum gypseum WW1107; assay: as above; assay type: cell-based; settings: Nannizzia gypsea, YM agar (pH 7.0, Difco), 30°C for 2 days (yeast) or 4 days (filamentous fungi), read-out: MICs, Microsporum gypseum WW1107
# Experimental: as §2
# [20] = test system: Saccharomyces cerevisiae A25803; assay: as above; assay type: cell-based; settings: YM agar (pH 7.0, Difco), 30°C for 2 days (yeast) or 4 days (filamentous fungi), read-out: MICs, Saccharomyces cerevisiae A25803
# Experimental: as §2
# [21] = test system: Trichophyton mentagrophytes A26771; assay: as above; assay type: cell-based; settings: A26771, YM agar (pH 7.0, Difco), 30°C for 2 days (yeast) or 4 days (filamentous fungi), read-out: MICs, Trichophyton mentagrophytes A26771
# Experimental: as §2
# [22] = test system: Trichophyton rubrum A26761; assay: as above; assay type: cell-based; settings: A26761, YM agar (pH 7.0, Difco), 30°C for 2 days (yeast) or 4 days (filamentous fungi), read-out: MICs, Trichophyton rubrum A26761
# Experimental: as §2
# [23] = Water solubility, protocol I (PBS, HPLC); assay type: physicochemical; settings: Method I: PBS without CaCl₂ and MgCl₂.6H₂O
# Experimental: The supernatant (2 µL) was analyzed by HPLC using the conditions specified for each compound in the Experimental Section. […] When not soluble, an additional amount of PBS (x µL) was added, sonicated, and centrifuged. When visibly soluble, the solution (2 µL) was injected to HPLC and the peak area was used for the known concentration of the sample.
# [24] = physchem
# Experimental: The sample (3 ∼ 3.5 mg) was suspended in 1 ml of PBS(-) or PBS(+), sonicated at 30°C for 10 minutes, and allowed to stand at room temperature for 2 hours. The resulting solution or suspension was centrifuged at 12,000 rpm for 10 minutes. The supernatant (pH 6.7 ∼ 7.2) was diluted (5 x or 50 x) with 0.01N NaOH (pH ca. 11.5) and its UV absorption at 500 nm was measured. The solubility was assessed by the absorption coefficient value with reference to the standard. […] The zwitterionic form sample was used for the solubility test as it is. The hydrochloride salt sample (3 mg) was dissolved in 3 ml of distilled water and neutralized with 0.01N NaOH, and then the solution was lyophilized to give a test sample.
# Dulbecco's phosphate buffered saline (PBS) solution was used. Preparation of PBS(-) solution: One PBS(-) tablet (Flow Laboratories, Cat. No. 28-103-05) was dissolved in 100 ml distilled water, and the solution was autoclaved for 10 minutes at 115°C. This solution contains 0.2 g/L of KCl, 0.2 g/L of KH₂PO₄, 8 g/L of NaCl, and 1.15 g/L of Na₂HPO₄. Preparation of PBS(+) solution: One PBS(-) tablet was dissolved in 80 ml distilled water; 10 mg of CaCl₂ was dissolved in 10 ml distilled water; 10 mg of MgCl₂, 6H₂O was dissolved in 10 ml distilled water. These solutions were separately autoclaved, as described above, and mixed when cooled.
structure (smiles),measurement,setting,value
"CN[C@@H]1[C@H](O[C@@H]2OC[C@@H](O)[C@H](O)[C@H]2O)[C@@H](O)[C@H](O[C@H]2c3cc(C)c(C(=O)N[C@H](C)C(=O)O)c(O)c3-c3c(cc4c(c3O)C(=O)c3cc(OC)cc(O)c3C4=O)[C@@H]2O)O[C@@H]1C [Pradimicin A, reference compound]",MIC,[1],6.3 µg/mL
same,MIC,[2],3.1 µg/mL
same,MIC,[3],3.1 µg/mL
same,MIC,[4],50 µg/mL
same,MIC,[5],0.8 µg/mL
same,MIC,[6],0.8 µg/mL
same,MIC,[7],3.1 µg/mL
same,MIC,[8],12.5 µg/mL
same,MIC,[9],1.6 µg/mL
same,MIC,[10],3.1 µg/mL
same,MIC,[11],3.2 µg/mL
same,MIC,[12],> 50 µg/mL
same,MIC,[13],> 50 µg/mL
same,MIC,[14],3.2 µg/mL
same,MIC,[15],1.6 µg/mL
same,MIC,[16],> 50 µg/mL
same,MIC,[17],0.4 µg/mL
same,MIC,[18],1.6 µg/mL
same,MIC,[19],12.5 µg/mL
same,MIC,[20],0.8 µg/mL
same,MIC,[21],6.3 µg/mL
same,MIC,[22],6.3 µg/mL
same,solubility,[23],17 µg/mL
same,solubility at 2 h,[24]; Method II (+): PBS(+),81 µg/mL
same,solubility at 2 h,[24]; Method II (-): PBS(-),17 µg/mL
